Assay results: patent US20230181536A1, “ANTICANCER COMBINATION THERAPY WITH N-(1-ACRYLOYL-AZETIDIN-3-YL)-2-((1H-INDAZOL-3-YL)AMINO)METHYL)-1H-IMIDAZOLE-5-CARBOXAMIDE INHIBITOR OF KRAS-G12C” (TAIHO PHARMACEUTICAL CO., LTD., priority 2020, published 2023)

The compounds below were run against T1, KRAS G12C (Homo sapiens, UniProt P01116, G12C) (assay: Inhibitory activity on the KRAS G12C nucleotide (GDP-GTP) exchange reaction). Details: Bodipy FL GDP-bound KRAS G12C 25 nM; preincubation at 25° C. for 4 hours; SOS1 100 nM, GppNHp 1 μM, reaction for 30 minutes.
T1 construct: KRAS G12C (amino acid region: 1-169)
T1 sequence (P01116 1-169 isoform P01116-2 G12C): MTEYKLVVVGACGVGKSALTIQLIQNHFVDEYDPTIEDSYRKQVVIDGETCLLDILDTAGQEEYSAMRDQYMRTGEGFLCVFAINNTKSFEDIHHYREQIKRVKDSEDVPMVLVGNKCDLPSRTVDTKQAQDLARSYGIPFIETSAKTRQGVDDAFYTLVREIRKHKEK
Format: biochemical
Summary of the method: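 Bodipy FL-GDP-loaded KRAS G12C (aa 1-169, 25 nM) preincubated with compound 4 h at 25 °C in pH 7.5 Tris buffer, 5% DMSO; exchange started with SOS1 (aa 564-1049, 100 nM) and 1 μM GppNHp for 30 min. Fluorescence change (ex 485/em 520 nm) normalized to DMSO and no-GppNHp controls; IC50 calculated.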

IC50	SMILES
13 nM	C=CC(=O)N1CC(NC(=O)c2c(Cl)nc(CNc3n[nH]c4cc(Cl)c(C(C)(C)C)cc34)n2[C@@H]2CCN(CC(F)F)[C@H]2C)C1 [Example 125, N-(1-acryloylazetidin-3-yl)-2-(((5-(tert-butyl)-6-chloro-1H-indazol-3-yl)amino)methyl)-4-chloro-1-((2S,3R)-1-(2,2-difluoroethyl)-2-methylpyrrolidin-3-yl)-1H-imidazole-5-carboxamide]
142 nM	C=CC(=O)N1CC[C@@H](N(C)C(=O)c2cnc(CNc3n[nH]c4cc(Cl)c(C(C)(C)C)cc34)n2C)C1 [Example 77, (R)-N-(1-acryloylpyrrolidin-3-yl)-2-(((5-(tert-butyl)-6-chloro-1H-indazol-3-yl)amino)methyl)-N,1-dimethyl-1H-imidazole-5-carboxamide]
8 nM	C=CC(=O)N1CC(NC(=O)c2c(Cl)nc(CNc3n[nH]c4cc(Cl)c(C(C)(C)C)cc34)n2C2CN(C(=O)OC(C)(C)C)C2)C1 [Example 106, Tert-butyl 3-(5-((1-acryloylazetidin-3-yl)carbamoyl)-2-(((5-(tert-butyl)-6-chloro-1H-indazol-3-yl)amino)methyl)-4-chloro-1H-imidazol-1-yl)azetidine-1-carboxylate]
6 nM	C=CC(=O)N1CC(NC(=O)c2c(Cl)nc(CNc3n[nH]c4cc(Cl)c(C(C)(C)C)cc34)n2CCOC)C1 [Example 90, N-(1-acryloylazetidin-3-yl)-2-(((5-(tert-butyl)-6-chloro-1H-indazol-3-yl)amino)methyl)-4-chloro-1-(2-methoxyethyl)-1H-imidazole-5-carboxamide]
118 nM	C=CC(=O)N1CC(NC(=O)c2c(Cl)nc(CNc3n[nH]c4cc(Cl)c(C(C)(C)C)cc34)n2-c2ccccn2)C1 [Example 94, N-(1-acryloylazetidin-3-yl)-2-(((5-(tert-butyl)-6-chloro-1H-indazol-3-yl)amino)methyl)-4-chloro-1-(pyridin-2-yl)-1H-imidazole-5-carboxamide]

The next lines start with the compound.

SMILES	IC50
C=CC(=O)N1CC(NC(=O)c2c(C)nc(CNc3n[nH]c4ccc(C(C)(C)C)cc34)n2C(C)C)C1 [Example 42, N-(1-acryloylazetidin-3-yl)-2-(((5-(tert-butyl)-1H-indazol-3-yl)amino)methyl)-1-isopropyl-4-methyl-1H-imidazole-5-carboxamide]	68 nM
C=CC(=O)N1CC(N(C)C(=O)c2c(C)nc(CNc3n[nH]c4cc(Cl)c(C(C)(C)C)cc34)n2C)C1 [Example 49, N-(1-acryloylazetidin-3-yl)-2-(((5-(tert-butyl)-6-chloro-1H-indazol-3-yl)amino)methyl)-N,1,4-trimethyl-1H-imidazole-5-carboxamide]	208 nM
C=CC(=O)N1CC(NC(=O)c2c(C)nc(CNc3n[nH]c4cc(Cl)c(C(C)(C)C)cc34)n2C(C)CC)C1 (centres unmarked) [Example 20, N-(1-acryloylazetidin-3-yl)-1-(sec-butyl)-2-(((5-(tert-butyl)-6-chloro-1H-indazol-3-yl)amino)methyl)-4-methyl-1H-imidazole-5-carboxamide]	31 nM
C=CC(=O)N1CC(NC(=O)c2c(Cl)nc(CNc3n[nH]c4cc(Cl)c(C(C)(C)C)cc34)n2C(C)C)C1 [Example 35, N-(1-acryloylazetidin-3-yl)-2-(((5-(tert-butyl)-6-chloro-1H-indazol-3-yl)amino)methyl)-4-chloro-1-isopropyl-1H-imidazole-5-carboxamide]	8 nM
C=CC(=O)N1CC[C@@H](NC(=O)c2c(F)nc(CNc3n[nH]c4cc(Cl)c(C(C)(C)C)cc34)n2C)C1 [Example 72, (R)-N-(1-acryloylpyrrolidin-3-yl)-2-(((5-(tert-butyl)-6-chloro-1H-indazol-3-yl)amino)methyl)-4-fluoro-1-methyl-1H-imidazole-5-carboxamide]	71 nM
C=CC(=O)N1C[C@H](NC(=O)c2c(C)nc(CNc3n[nH]c4cc(Cl)c(C(C)(C)C)cc34)n2C)[C@H](OC)C1 [Example 61, N-((3S,4R)-1-acryloyl-4-methoxypyrrolidin-3-yl)-2-(((5-(tert-butyl)-6-chloro-1H-indazol-3-yl)amino)methyl)-1,4-dimethyl-1H-imidazole-5-carboxamide]	210 nM
